Test results published in article PMC5053573, “Structure-Based Design of Tetrahydroisoquinoline-7-carboxamides as Selective Discoidin Domain Receptor 1 (DDR1) Inhibitors” (Journal of Medicinal Chemistry, 2016).

Assays:
Experiment in all cases: biochemical
Conditions in all cases: read-out: %Ctrl @ 1000nM
[1] = target: ABL1(F317I)-nonphosphorylated (Homo sapiens, UniProt P00519, F317I)
[2] = target: ABL1(H396P)-phosphorylated (Homo sapiens, UniProt P00519, H396P)
CAMK2G = CAMK2G (Homo sapiens, UniProt Q13555)
CAMKK2 = CAMKK2 (Homo sapiens, UniProt Q96RR4)
CASK = CASK (Homo sapiens, UniProt O14936)
CHEK1 = CHEK1 (Homo sapiens, UniProt O14757)
CLK4 = CLK4 (Homo sapiens, UniProt Q9HAZ1)
DYRK2 = DYRK2 (Homo sapiens, UniProt Q92630)
FLT3(D835H) = FLT3(D835H) (Homo sapiens, UniProt P36888, D835H)
FLT3(R834Q) = FLT3(R834Q) (Homo sapiens, UniProt P36888, R834Q)
FLT4 = FLT4 (Homo sapiens, UniProt P35916)
[3] = target: JAK1(JH1domain-catalytic) (Homo sapiens, UniProt P23458)
LOK = target: T1, LOK (Homo sapiens, UniProt O94804)
T1 construct: gene STK10

MAP4K5 = MAP4K5 (Homo sapiens, UniProt Q9Y4K4)
MARK3 = MARK3 (Homo sapiens, UniProt P27448)
MARK4 = MARK4 (Homo sapiens, UniProt Q96L34)
MRCKA = target: T2, MRCKA (Homo sapiens, UniProt Q5VT25)
T2 construct: gene CDC42BPA

MYLK4 = MYLK4 (Homo sapiens, UniProt Q86YV6)
MYO3A = MYO3A (Homo sapiens, UniProt Q8NEV4)
NDR1 = target: T3, NDR1 (Homo sapiens, UniProt Q15208)
T3 construct: gene STK38

NEK2 = NEK2 (Homo sapiens, UniProt P51955)
PHKG2 = PHKG2 (Homo sapiens, UniProt P15735)
PIK3C2G = PIK3C2G (Homo sapiens, UniProt O75747)
PIM3 = PIM3 (Homo sapiens, UniProt Q86V86)
PKN2 = PKN2 (Homo sapiens, UniProt Q16513)
PRKCE = PRKCE (Homo sapiens, UniProt Q02156)
PRKG1 = PRKG1 (Homo sapiens, UniProt Q13976)
PRKG2 = PRKG2 (Homo sapiens, UniProt Q13237)
RET = RET (Homo sapiens, UniProt P07949)
RET(V804M) = RET(V804M) (Homo sapiens, UniProt P07949, V804M)
[4] = target: RPS6KA4(Kin.Dom.2-C-terminal) (Homo sapiens, UniProt O75676)
[5] = target: T4, RSK4(Kin.Dom.2-C-terminal) (Homo sapiens, UniProt Q9UK32)
T4 construct: gene RPS6KA6

SRC = SRC (Homo sapiens, UniProt P12931)
p38-alpha = target: T5, p38-alpha (Homo sapiens, UniProt Q16539)
T5 construct: gene MAPK14

p38-gamma = target: T6, p38-gamma (Homo sapiens, UniProt P53778)
T6 construct: gene MAPK12

Sequence of CAMKK2 (Q96RR4 whole entry): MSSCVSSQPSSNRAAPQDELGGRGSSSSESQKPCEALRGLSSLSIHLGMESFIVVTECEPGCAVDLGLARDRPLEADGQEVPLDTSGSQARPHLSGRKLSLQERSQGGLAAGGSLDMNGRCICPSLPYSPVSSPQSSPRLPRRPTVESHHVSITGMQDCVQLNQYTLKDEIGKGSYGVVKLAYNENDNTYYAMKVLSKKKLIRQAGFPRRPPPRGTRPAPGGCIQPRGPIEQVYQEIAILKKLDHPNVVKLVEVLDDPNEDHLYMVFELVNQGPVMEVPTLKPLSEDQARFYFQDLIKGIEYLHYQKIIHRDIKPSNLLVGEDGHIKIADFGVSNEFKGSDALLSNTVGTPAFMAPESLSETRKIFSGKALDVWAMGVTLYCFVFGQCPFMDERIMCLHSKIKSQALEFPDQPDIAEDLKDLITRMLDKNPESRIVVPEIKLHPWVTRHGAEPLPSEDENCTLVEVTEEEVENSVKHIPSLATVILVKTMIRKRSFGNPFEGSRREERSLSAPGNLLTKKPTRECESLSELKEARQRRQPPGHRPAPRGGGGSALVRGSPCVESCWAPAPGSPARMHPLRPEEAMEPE
Sequence of PIK3C2G (O75747 whole entry): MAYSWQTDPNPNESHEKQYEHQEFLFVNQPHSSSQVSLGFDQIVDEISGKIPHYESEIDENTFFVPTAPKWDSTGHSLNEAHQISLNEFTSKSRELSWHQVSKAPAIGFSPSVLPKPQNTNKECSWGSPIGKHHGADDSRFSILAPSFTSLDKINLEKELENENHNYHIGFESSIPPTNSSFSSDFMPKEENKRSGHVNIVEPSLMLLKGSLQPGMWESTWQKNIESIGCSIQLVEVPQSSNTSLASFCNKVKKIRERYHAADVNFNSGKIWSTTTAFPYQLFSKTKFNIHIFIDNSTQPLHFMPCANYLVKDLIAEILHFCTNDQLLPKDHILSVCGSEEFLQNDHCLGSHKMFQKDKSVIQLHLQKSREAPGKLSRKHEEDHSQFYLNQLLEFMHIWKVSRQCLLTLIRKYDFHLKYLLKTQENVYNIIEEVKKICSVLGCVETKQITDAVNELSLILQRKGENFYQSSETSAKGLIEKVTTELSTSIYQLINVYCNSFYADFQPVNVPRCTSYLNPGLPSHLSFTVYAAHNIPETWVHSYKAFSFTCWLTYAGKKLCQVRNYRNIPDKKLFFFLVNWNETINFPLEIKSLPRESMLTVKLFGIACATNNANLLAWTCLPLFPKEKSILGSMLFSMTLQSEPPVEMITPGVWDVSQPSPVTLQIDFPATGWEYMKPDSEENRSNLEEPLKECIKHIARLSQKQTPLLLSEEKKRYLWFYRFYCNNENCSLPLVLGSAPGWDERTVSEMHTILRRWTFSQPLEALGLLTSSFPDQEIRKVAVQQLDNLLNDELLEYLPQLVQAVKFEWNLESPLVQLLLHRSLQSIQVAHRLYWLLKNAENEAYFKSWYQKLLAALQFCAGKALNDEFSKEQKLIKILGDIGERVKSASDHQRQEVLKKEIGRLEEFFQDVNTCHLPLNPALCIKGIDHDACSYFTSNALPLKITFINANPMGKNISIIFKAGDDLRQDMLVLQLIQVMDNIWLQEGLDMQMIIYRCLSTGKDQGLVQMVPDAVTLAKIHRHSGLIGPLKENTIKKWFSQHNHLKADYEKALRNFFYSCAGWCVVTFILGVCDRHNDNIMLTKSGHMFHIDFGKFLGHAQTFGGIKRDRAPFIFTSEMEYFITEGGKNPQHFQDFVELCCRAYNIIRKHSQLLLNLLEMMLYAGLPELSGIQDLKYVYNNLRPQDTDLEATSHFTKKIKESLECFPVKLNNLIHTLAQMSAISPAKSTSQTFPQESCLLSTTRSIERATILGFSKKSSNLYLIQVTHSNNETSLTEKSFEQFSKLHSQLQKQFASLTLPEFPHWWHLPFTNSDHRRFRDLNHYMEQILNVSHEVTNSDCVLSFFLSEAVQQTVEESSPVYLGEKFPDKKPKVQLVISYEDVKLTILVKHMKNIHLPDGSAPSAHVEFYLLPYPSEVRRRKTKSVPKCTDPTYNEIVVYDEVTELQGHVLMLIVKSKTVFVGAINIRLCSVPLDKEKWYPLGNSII
T4 sequence (Q9UK32 whole entry): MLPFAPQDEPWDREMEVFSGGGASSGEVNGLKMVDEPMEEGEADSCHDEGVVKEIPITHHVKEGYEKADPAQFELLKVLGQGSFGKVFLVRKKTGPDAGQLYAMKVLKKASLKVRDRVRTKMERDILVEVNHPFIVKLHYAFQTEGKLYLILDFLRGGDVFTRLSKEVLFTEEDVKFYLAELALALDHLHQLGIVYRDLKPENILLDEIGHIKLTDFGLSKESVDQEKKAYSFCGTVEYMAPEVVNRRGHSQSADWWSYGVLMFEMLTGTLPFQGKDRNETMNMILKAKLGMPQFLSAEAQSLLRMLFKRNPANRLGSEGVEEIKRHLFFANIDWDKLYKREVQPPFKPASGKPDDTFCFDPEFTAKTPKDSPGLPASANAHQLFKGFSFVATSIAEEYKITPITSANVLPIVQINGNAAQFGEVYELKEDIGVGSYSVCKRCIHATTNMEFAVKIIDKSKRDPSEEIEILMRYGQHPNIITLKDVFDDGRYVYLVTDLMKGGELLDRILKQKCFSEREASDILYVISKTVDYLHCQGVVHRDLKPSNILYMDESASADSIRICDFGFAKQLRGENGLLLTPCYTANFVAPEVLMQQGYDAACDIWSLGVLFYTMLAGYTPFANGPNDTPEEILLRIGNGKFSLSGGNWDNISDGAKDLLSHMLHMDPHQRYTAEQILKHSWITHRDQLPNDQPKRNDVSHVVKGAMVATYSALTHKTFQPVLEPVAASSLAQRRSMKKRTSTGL
Sequence of PKN2 (Q16513 whole entry): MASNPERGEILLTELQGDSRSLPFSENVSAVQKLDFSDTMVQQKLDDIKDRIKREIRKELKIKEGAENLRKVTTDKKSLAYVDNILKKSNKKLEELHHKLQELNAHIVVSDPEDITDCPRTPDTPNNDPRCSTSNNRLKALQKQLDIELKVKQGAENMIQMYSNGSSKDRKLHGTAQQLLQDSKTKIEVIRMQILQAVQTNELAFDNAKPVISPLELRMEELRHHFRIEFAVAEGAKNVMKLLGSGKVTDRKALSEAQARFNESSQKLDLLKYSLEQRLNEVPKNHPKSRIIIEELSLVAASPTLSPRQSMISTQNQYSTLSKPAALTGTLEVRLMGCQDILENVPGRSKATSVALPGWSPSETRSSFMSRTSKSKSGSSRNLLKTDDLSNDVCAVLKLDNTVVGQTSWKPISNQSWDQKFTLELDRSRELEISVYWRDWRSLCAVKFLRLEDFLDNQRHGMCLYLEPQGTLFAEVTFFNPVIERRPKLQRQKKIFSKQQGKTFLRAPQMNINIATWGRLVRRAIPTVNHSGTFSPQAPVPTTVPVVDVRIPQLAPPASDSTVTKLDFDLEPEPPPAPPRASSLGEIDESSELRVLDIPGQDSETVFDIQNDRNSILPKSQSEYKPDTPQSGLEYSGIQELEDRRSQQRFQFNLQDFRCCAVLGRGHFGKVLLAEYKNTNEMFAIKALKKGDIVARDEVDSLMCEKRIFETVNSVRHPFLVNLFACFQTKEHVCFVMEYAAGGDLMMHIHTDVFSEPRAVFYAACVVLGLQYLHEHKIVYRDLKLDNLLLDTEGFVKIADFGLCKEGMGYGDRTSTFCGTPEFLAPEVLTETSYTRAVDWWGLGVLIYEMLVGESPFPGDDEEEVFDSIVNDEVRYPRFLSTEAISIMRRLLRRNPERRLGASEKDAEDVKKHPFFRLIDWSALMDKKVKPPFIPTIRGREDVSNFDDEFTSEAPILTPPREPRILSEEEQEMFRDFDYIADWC
Sequence of MYLK4 (Q86YV6 whole entry): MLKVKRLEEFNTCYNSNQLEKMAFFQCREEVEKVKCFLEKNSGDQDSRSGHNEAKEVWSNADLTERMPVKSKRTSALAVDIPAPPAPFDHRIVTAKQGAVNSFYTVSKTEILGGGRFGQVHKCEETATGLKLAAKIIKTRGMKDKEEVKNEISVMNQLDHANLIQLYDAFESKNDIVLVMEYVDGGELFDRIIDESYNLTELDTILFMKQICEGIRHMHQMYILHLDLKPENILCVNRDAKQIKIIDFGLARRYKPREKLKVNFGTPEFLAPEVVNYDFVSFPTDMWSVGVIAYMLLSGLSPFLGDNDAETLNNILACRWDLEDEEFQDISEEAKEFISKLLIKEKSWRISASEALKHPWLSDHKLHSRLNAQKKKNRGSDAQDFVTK
Sequence of MARK4 (Q96L34 whole entry): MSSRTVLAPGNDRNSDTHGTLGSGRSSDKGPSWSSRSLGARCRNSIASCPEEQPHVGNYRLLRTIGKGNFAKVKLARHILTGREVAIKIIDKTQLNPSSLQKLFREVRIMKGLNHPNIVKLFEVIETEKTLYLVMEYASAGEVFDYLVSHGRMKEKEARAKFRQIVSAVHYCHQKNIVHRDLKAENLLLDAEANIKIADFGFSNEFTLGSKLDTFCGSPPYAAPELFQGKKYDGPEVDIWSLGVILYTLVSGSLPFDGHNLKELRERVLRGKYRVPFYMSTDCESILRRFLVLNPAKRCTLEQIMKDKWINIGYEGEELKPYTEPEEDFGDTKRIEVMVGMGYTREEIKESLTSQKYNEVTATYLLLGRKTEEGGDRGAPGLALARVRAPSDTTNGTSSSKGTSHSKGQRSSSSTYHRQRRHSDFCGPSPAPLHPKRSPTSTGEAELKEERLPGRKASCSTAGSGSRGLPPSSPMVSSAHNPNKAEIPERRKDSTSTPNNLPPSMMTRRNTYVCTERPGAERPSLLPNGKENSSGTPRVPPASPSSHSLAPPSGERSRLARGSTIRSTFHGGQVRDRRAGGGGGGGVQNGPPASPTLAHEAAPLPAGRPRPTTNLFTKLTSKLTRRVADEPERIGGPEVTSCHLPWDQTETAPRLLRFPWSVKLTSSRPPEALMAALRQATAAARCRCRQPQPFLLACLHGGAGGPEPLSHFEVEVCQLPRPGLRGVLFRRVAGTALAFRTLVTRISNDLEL

Cc1cn(-c2cc(NC(=O)c3ccc4c(c3)CN(c3cncnc3)C[C@@H]4C)cc(C(F)(F)F)c2)cn1 [Compound 6j]
remaining activity at 1 µM [1]: 80%
remaining activity at 1 µM [2]: 100%
remaining activity at 1 µM (CAMK2G): 63%
remaining activity at 1 µM (CAMKK2): 72%
remaining activity at 1 µM (CASK): 100%
remaining activity at 1 µM (CHEK1): 96%
remaining activity at 1 µM (CLK4): 96%
remaining activity at 1 µM (DYRK2): 100%
remaining activity at 1 µM (FLT3(D835H)): 59%
remaining activity at 1 µM (FLT3(R834Q)): 86%
remaining activity at 1 µM (FLT4): 96%
remaining activity at 1 µM [3]: 100%
remaining activity at 1 µM (LOK): 72%
remaining activity at 1 µM (MAP4K5): 95%
remaining activity at 1 µM (MARK3): 94%
remaining activity at 1 µM (MARK4): 100%
remaining activity at 1 µM (MRCKA): 93%
remaining activity at 1 µM (MYLK4): 100%
remaining activity at 1 µM (MYO3A): 93%
remaining activity at 1 µM (NDR1): 98%
remaining activity at 1 µM (NEK2): 95%
remaining activity at 1 µM (PHKG2): 79%
remaining activity at 1 µM (PIK3C2G): 86%
remaining activity at 1 µM (PIM3): 94%
remaining activity at 1 µM (PKN2): 95%
remaining activity at 1 µM (PRKCE): 100%
remaining activity at 1 µM (PRKG1): 81%
remaining activity at 1 µM (PRKG2): 98%
remaining activity at 1 µM (RET): 94%
remaining activity at 1 µM (RET(V804M)): 100%
remaining activity at 1 µM [4]: 100%
remaining activity at 1 µM [5]: 74%
remaining activity at 1 µM (SRC): 94%
remaining activity at 1 µM (p38-alpha): 62%
remaining activity at 1 µM (p38-gamma): 79%
